Results from PMC4845862, “Quantification of active mitochondrial permeability transition pores using GNX-4975 inhibitor titrations provides insights into molecular identity” (Biochemical Journal, 2016).

Test system: adenine nucleotide translocase (ANT)
Test: Binding of solubilized heart IMM proteins to immobilized phenylarsine oxide (Western blot of ANT)
Design: species or system beef and pig
Settings: heart mitochondria treated with 10 μM CAT prior to IMM isolation and solubilization
Experimental: Centrifugation steps in this process were carried out using a benchtop Eppendorf 5415R centrifuge at 4°C. Mitochondria were washed in ISB and centrifuged at 12 000 g for 5 min before re-suspension in ISB containing protease inhibitors (4 μg/ml each of antipan, pepstatin A and leupeptin plus 0.5 mM benzamidine and 0.5 mM PMSF). Mitochondria were incubated with digitonin (0.12 mg/mg of mitochondrial protein) at 4°C for 15 min on a rotary mixer, and the resulting mitoplasts collected by centrifugation at 9000 g for 10 min before resuspension in ISB containing protease inhibitors and PEG ether W1 (Sigma P7516, formerly known as Lubrol) at 0.16 mg/mg of mitochondrial protein. […]
An immobilized PAO matrix was synthesized by coupling 4-aminophenylarsine oxide to Affi-gel 10 (Bio-Rad Laboratories 153-6099) as described previously. The resin was washed twice in 10 volumes of PAO column buffer (PCB: 150 mM Na2SO4, 50 mM HEPES and 1 mM EGTA, pH 7.2) containing 0.5% (v/v) Triton X-100 and then resuspended to give a 50% (v/v) slurry ready for use. […] Samples were analysed by SDS/PAGE and Western blotting or analysed by Orbitrap MS in the University of Bristol Proteomics Facility. […] The integrated optical density for each band was calculated as the product of the ‘area’ and ‘mean grey value’ with subtraction of a background signal obtained for an equivalent adjacent area lacking any band. […]

C=C1[C@@H]2CC[C@H]3[C@]4(C)C[C@H](O[C@@H]5O[C@H](CO)[C@@H](OS(=O)(=O)O)[C@H](OS(=O)(=O)O)[C@H]5OC(=O)CC(C)C)CC(C(=O)O)(C(=O)O)[C@H]4CC[C@]3(C2)[C@H]1O [CAT, carboxyatractyloside]
ANT binding to the PAO column: totally prevented
